# Laboratory results as given in paper PMC11045757, “Group 3 medulloblastoma transcriptional networks collapse under domain specific EP300/CBP inhibition” (Nature Communications, 2024).
# Tests used:
# [1] = target: T1, BRD4-BD1 (BRD4-1) (Homo sapiens, UniProt O60885); experiment: Isothermal titration calorimetry (ITC); assay type: binding; conditions: single ITC experiment, data fit ± SEM
# T1 construct: BRD4-BD1 (residues 44-168); 6xHis (cleaved yes); host or cells: E. coli BL21 (DE3) RIL
# Method: At OD600 of 0.6, the culture was cooled down to 18 °C and induced with 0.1 mM IPTG. After 18 h growth, the culture was harvested by centrifugation at 6000 × g for 25 min and stored at -80 °C. Harvested cell pellets were re-suspended in 50 mM Na/K phosphate buffer (pH 7.4) containing 100 mM NaCl, 40 mM imidazole, 0.01% w/v lysozyme and 0.01% v/v Triton X-100 at 4 °C for 1 h, subjected to sonication and the lysate was clarified by centrifugation (30,000 × g for 45 min at 4 °C). Proteins were purified by FPLC at 4 °C using columns and chromatography materials from GE Healthcare. […] Proteins were purified to homogeneity by size exclusion chromatography using Superdex 75 equilibrated with elution buffer (50 mM HEPES pH 7.5, 100 mM NaCl, 2 mM DTT). All BRDs eluted as monomeric protein and were of crystallization grade quality (>95% purity as judged by SDS-PAGE). Pool fractions were combined, concentrated to 10–12 mg/ml, and aliquots were flash-frozen in liquid N2 and stored at −80 °C.
# All experiments were conducted using an PEAQ-ITC calorimeter (Malvern Scientific). BRDs were buffer exchanged using PD10 columns (GE life sciences) into 50 mM HEPES pH7.5 and 100 mM NaCl (ITC buffer) before the experiment and concentrated to ∼10 mg/mL. Experiments were carried out in ITC buffer while stirring at 750 rpm through reverse titration. The microsyringe (40 μL load volume) was loaded with the protein sample (250–600 μM protein in ITC buffer) and inserted into the calorimetric cell (0.2 mL cell volume) consisting of compound (20–60 μM in ITC buffer). All titrations were conducted using an initial control injection of 0.2 μL followed by 13 identical injections (~3 μL per injection) with a duration of 2 s (per injection) and a spacing of 150 s between injections. The ratio of protein/compound was optimized to ensure complete saturation of the titrant before the final injection to ensure proper baseline determination. Data were corrected for dilution and analyzed using the MicroCal Origin software to determine the enthalpies of binding (ΔH) and binding constants as described. Thermodynamic parameters were calculated using the basic equation of thermodynamics (ΔG = ΔH − TΔS = −RTlnKB) where ΔG, ΔH and ΔS are the changes in free energy, enthalpy and entropy of binding, respectively. A single binding site model was used for all ligand-protein interactions.
# [2] = target: T2, BAZ2A (Homo sapiens, UniProt Q9UIF9); experiment: BromoScan profiling (DiscoverX); assay type: binding; conditions: read-out: Percent Control BAZ2A
# T2 construct: purchased Eurofins DiscoverX (BROMOscan)
# [3] = target: T3, BRD2(1) (Homo sapiens, UniProt P25440); experiment: BromoScan profiling (DiscoverX); assay type: binding; conditions: read-out: Percent Control BRD2(1)
# T3 construct: BRD2(1); purchased Eurofins DiscoverX (BROMOscan)
# T3 sequence (P25440 71-194 limits assumed): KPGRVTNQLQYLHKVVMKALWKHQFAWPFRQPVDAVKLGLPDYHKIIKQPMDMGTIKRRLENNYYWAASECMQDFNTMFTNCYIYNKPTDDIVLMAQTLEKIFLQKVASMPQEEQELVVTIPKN
# [4] = target: T4, BRD3(2) (Homo sapiens, UniProt Q15059); experiment: BromoScan profiling (DiscoverX); assay type: binding; conditions: read-out: Percent Control BRD3(2)
# T4 construct: BRD3(2); purchased Eurofins DiscoverX (BROMOscan)
# T4 sequence (Q15059 306-416 limits assumed): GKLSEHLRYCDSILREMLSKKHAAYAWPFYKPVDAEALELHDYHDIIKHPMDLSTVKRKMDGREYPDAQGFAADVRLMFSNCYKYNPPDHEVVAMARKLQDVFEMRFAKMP
# [5] = target: T5, BRD7 (Homo sapiens, UniProt Q9NPI1); experiment: BromoScan profiling (DiscoverX); assay type: binding; conditions: read-out: Percent Control BRD7
# T5 construct: purchased Eurofins DiscoverX (BROMOscan)
# T5 sequence (Q9NPI1 whole entry): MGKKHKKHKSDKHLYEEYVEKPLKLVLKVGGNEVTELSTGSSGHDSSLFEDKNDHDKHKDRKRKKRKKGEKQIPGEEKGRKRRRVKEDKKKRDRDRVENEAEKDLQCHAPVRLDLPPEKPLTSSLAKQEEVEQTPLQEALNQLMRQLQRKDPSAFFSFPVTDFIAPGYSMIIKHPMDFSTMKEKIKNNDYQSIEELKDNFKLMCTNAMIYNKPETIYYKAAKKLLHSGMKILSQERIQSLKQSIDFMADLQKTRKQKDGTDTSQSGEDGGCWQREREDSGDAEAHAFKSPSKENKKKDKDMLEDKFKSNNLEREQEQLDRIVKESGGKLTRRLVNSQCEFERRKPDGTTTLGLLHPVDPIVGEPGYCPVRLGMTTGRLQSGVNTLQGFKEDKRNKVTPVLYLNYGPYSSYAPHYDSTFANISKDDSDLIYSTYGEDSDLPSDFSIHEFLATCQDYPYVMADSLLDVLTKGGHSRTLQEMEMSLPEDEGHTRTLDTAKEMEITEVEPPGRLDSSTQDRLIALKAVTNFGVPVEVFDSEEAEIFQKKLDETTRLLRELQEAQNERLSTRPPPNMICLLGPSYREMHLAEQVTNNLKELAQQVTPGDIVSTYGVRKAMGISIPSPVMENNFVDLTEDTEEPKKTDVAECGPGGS
# [6] = target: T6, BRD9 (Homo sapiens, UniProt Q9H8M2); experiment: BromoScan profiling (DiscoverX); assay type: binding; conditions: read-out: Percent Control BRD9
# T6 construct: purchased Eurofins DiscoverX (BROMOscan)
# T6 sequence (Q9H8M2 whole entry): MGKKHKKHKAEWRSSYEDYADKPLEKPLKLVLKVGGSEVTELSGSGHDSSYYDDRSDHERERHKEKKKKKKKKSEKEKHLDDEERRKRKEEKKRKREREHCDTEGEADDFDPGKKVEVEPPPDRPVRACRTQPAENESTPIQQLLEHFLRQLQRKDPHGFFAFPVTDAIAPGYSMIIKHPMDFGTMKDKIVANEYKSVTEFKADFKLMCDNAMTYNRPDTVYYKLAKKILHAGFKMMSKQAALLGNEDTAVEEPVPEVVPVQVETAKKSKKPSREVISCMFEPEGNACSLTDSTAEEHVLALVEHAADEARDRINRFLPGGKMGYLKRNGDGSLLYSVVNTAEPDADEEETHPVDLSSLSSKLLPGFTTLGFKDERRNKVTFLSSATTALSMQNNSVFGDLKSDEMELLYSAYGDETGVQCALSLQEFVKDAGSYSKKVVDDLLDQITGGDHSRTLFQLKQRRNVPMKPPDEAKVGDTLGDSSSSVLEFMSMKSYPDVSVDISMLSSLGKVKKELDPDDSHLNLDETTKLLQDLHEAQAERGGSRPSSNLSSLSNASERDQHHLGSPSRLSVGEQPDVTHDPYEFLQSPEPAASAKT
# [7] = target: T7, BRDT(1) (Homo sapiens, UniProt Q58F21); experiment: BromoScan profiling (DiscoverX); assay type: binding; conditions: read-out: Percent Control BRDT(1)
# T7 construct: BRDT(1); purchased Eurofins DiscoverX (BROMOscan)
# [8] = target: T8, BRPF1 (Homo sapiens, UniProt P55201); experiment: BromoScan profiling (DiscoverX); assay type: binding; conditions: read-out: Percent Control BRPF1
# T8 construct: purchased Eurofins DiscoverX (BROMOscan)
# [9] = target: T9, BRPF3 (Homo sapiens, UniProt Q9ULD4); experiment: BromoScan profiling (DiscoverX); assay type: binding; conditions: read-out: Percent Control BRPF3
# T9 construct: purchased Eurofins DiscoverX (BROMOscan)
# T9 sequence (Q9ULD4 whole entry): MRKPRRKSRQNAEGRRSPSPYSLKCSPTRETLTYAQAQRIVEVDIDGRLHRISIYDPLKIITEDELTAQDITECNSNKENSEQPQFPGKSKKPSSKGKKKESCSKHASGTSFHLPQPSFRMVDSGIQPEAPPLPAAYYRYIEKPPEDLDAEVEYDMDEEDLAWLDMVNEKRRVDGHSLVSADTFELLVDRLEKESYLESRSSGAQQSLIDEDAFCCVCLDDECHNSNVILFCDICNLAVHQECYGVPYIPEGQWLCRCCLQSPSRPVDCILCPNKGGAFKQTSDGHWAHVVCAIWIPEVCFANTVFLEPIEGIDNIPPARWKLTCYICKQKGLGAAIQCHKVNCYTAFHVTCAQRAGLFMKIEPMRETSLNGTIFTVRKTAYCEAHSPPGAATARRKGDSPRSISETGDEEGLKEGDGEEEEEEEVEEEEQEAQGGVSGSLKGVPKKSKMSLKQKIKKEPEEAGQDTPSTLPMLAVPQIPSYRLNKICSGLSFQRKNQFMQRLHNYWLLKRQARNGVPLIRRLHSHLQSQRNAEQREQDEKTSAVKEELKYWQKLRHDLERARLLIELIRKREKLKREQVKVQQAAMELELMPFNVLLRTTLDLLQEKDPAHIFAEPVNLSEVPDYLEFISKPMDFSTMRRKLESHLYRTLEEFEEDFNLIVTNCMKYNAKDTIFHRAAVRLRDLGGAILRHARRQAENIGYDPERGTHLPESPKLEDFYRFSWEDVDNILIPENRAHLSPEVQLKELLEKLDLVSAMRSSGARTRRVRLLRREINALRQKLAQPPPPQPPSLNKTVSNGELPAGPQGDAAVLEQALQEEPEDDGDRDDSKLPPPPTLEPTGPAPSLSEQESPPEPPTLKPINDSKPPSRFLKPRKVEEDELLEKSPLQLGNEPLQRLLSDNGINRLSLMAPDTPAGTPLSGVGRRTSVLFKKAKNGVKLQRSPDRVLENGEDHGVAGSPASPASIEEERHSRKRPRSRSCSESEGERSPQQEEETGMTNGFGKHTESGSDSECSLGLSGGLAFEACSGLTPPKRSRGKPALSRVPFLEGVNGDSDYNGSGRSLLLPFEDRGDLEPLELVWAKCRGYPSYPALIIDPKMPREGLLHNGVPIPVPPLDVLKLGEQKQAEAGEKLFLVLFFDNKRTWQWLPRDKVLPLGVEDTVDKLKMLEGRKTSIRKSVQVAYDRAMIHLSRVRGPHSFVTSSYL
# [10] = target: T10, EP300 (Homo sapiens, UniProt Q09472); experiment: BromoScan profiling (DiscoverX); assay type: binding; conditions: read-out: Percent Control EP300
# T10 construct: purchased Eurofins DiscoverX (BROMOscan)
# [11] = target: T11, GCN5L2 (Homo sapiens, UniProt Q92830); experiment: BromoScan profiling (DiscoverX); assay type: binding; conditions: read-out: Percent Control GCN5L2
# T11 construct: purchased Eurofins DiscoverX (BROMOscan)
# T11 sequence (Q92830 whole entry): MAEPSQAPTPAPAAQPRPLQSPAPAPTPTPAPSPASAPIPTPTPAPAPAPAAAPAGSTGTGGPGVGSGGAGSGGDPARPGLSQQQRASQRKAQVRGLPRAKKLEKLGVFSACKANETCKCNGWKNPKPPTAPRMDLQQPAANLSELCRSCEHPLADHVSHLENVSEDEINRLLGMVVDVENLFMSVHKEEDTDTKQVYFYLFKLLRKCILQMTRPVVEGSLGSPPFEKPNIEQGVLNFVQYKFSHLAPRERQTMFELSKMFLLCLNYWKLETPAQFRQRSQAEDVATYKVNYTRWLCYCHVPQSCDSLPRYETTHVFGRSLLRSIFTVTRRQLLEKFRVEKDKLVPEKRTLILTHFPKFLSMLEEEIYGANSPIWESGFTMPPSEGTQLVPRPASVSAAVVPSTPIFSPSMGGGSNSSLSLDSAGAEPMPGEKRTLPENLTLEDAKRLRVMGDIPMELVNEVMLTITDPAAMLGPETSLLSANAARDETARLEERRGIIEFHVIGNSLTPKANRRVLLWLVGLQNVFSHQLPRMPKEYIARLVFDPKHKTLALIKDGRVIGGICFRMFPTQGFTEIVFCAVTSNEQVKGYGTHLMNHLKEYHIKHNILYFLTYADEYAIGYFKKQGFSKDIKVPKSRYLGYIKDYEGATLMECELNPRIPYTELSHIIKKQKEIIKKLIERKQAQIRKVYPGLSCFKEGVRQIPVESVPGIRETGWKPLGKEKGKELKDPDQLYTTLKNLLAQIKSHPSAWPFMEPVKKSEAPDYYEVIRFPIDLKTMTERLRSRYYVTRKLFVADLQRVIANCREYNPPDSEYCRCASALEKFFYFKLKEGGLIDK
# [12] = target: T12, PBRM1(2) (Homo sapiens, UniProt Q86U86); experiment: BromoScan profiling (DiscoverX); assay type: binding; conditions: read-out: Percent Control PBRM1(2)
# T12 construct: PBRM1(2); purchased Eurofins DiscoverX (BROMOscan)
# T12 sequence (Q86U86 178-291 limits assumed): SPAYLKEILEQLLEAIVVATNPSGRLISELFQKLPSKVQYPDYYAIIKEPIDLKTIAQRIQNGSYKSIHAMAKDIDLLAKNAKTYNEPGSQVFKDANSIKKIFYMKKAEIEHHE
# [13] = target: T13, PBRM1(5) (Homo sapiens, UniProt Q86U86); experiment: BromoScan profiling (DiscoverX); assay type: binding; conditions: read-out: Percent Control PBRM1(5)
# T13 construct: PBRM1(5); purchased Eurofins DiscoverX (BROMOscan)
# T13 sequence (Q86U86 645-766 limits assumed): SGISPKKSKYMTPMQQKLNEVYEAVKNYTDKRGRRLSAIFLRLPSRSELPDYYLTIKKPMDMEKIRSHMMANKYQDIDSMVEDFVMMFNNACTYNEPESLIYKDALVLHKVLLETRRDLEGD
# [14] = target: T14, SMARCA4 (Homo sapiens, UniProt P51532); experiment: BromoScan profiling (DiscoverX); assay type: binding; conditions: read-out: Percent Control SMARCA4
# T14 construct: purchased Eurofins DiscoverX (BROMOscan)
# [15] = target: T15, TAF1(2) (Homo sapiens, UniProt P21675); experiment: BromoScan profiling (DiscoverX); assay type: binding; conditions: read-out: Percent Control TAF1(2)
# T15 construct: TAF1(2); purchased Eurofins DiscoverX (BROMOscan)
# T15 sequence (P21675 1519-1656 limits assumed): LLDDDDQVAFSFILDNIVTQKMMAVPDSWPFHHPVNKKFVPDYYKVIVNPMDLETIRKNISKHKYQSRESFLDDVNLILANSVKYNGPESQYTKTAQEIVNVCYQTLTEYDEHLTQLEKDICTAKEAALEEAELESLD
# [16] = target: T16, TAF1L(2) (Homo sapiens, UniProt Q8IZX4); experiment: BromoScan profiling (DiscoverX); assay type: binding; conditions: read-out: Percent Control TAF1L(2)
# T16 construct: TAF1L(2); purchased Eurofins DiscoverX (BROMOscan)
# T16 sequence (Q8IZX4 1517-1654 limits assumed): as the sequence (P21675 1519-1656 limits assumed) above, with V46M, M51V, V102I, L107I counted along it
# [17] = target: T17, TRIM24(PHD,Bromo.) (Homo sapiens, UniProt O15164); experiment: BromoScan profiling (DiscoverX); assay type: binding; conditions: read-out: Percent Control TRIM24(PHD,Bromo.)
# T17 construct: purchased Eurofins DiscoverX (BROMOscan)
# T17 sequence (O15164 824-1006 limits assumed): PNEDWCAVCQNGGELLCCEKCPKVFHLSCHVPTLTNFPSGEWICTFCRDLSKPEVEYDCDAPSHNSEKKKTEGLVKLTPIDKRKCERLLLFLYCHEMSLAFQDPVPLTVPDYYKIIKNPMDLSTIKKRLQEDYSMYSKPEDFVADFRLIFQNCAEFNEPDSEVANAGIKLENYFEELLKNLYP
# [18] = test system: TRIM33(PHD,Bromo.); experiment: BromoScan profiling (DiscoverX); assay type: binding, human; conditions: 1 µM
# [19] = target: T18, WDR9(2) (Homo sapiens, UniProt Q9NSI6); experiment: BromoScan profiling (DiscoverX); assay type: binding; conditions: read-out: Percent Control WDR9(2)
# T18 construct: WDR9(2); purchased Eurofins DiscoverX (BROMOscan)
# T18 sequence (Q9NSI6 1310-1430 limits assumed): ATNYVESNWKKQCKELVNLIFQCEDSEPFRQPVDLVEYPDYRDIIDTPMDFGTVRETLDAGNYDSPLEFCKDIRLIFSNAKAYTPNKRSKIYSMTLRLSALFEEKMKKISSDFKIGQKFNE
compound,measurement,setting,value
CO[C@H]1CC[C@H](n2c([C@@H]3CCCC(=O)N3c3ccc(F)c(F)c3)nc3cc(-c4c(C)noc4C)ccc32)CC1 [CCS1477],Kd,[1],403 ± 137 nM
same,remaining binding at 1 µM,[2],79%
same,remaining binding at 1 µM,[3],3.5%
same,remaining binding at 1 µM,[4],66%
same,remaining binding at 1 µM,[5],64%
same,remaining binding at 1 µM,[6],39%
same,remaining binding at 1 µM,[7],14%
same,remaining binding at 1 µM,[8],31%
same,remaining binding at 1 µM,[9],75%
same,remaining binding at 1 µM,[10],1.6%
same,remaining binding at 1 µM,[11],100%
same,remaining binding at 1 µM,[12],78%
same,remaining binding at 1 µM,[13],71%
same,remaining binding at 1 µM,[14],61%
same,remaining binding at 1 µM,[15],69%
same,remaining binding at 1 µM,[16],80%
same,remaining binding at 1 µM,[17],54%
same,"Percent Control TRIM33(PHD,Bromo.)",[18],90
same,remaining binding at 1 µM,[19],14%
